Experiments:
[1] = system: STZ-induced type-1 diabetic mice; assay: Lowering of blood glucose level in STZ-induced type-1 diabetic mice; assay type: in vivo; settings: intraperitoneal, 20-30 μg/mouse; for start of working after injection: purified E. coli-expressed
Description: (§1) FIGS. 8A-B. (FIG. 8A) Effect of SPC-insulins on lowering blood glucose level of normal mice using subcutaneous injection. The yeast-expressed SPC-insulin-P (p-insulin) and SPC-insulin-PP (2p-insulin) (20-30 μg/mouse) was injected subcutaneously into the normal mice (n=6). (FIG. 8B) Effects of the purified E. coli-expressed SPC-insulins on lowering blood glucose level of STZ-induced type-1 diabetic mice. 20-30 μg/mouse of the purified E. coli-expressed SPC-P (P-insulin) or SPC-insulin-PP (PP-insulin) was intraperitoneally injected into the STZ-induced Type-1 diabetic mice (with an elevated blood glucose levels of 370-400 mg/dl, n=6). The glucose levels of the blood collected from the mouse tail vein at the increasing time points were measured using Contour^next One glucose meter. Humulin R (20-24 μg/mouse) was used as a positive control (n=6, M±SE). STZ-Control=oval; Hummulin R=rectangle; SPC-Insulin-P=upward pointing triangle; SPC-Insulin-PP=downward pointing triangle.
The second animal model is the STZ-induced type-1 diabetic mouse. The mice received STZ injection quickly developed into type 1 diabetes because STZ destroyed the insulin-producing cells in pancreas and elevated the glucose level (FIGS. 8A-B, blood glucose level labeled with STZ). The both of the purified SPC-insulin-P and -PP were tested on the diabetic mice. Similar to that of the normal mice, the SPC-insulins started working around 1-1.5 hours after injection, reached to the best therapeutic effects around 4 hours, and then last for 24-48 hours (FIGS. 8A-B).

normal mice = assay: Lowering of blood glucose level in normal mice; assay type: in vivo; settings: intraperitoneal, 20-24 μg/mouse
Description: FIGS. 7A-B. Effect of SPC-insulins on lowering blood glucose level in vivo. The purified yeast-(FIG. 7A) or E. coli-(FIG. 7B) expressed SPC-insulin-P (p-insulin) and SPC-insulin-PP (2p-insulin) (20-24 μg/mouse) was injected (intraperitoneally) into normal mice. The glucose levels of the blood collected from tail vein at the increasing time points were measured using Contour^next One glucose meter (n=6). Humulin R (20-24 μg/mouse) was used as a positive control (n=6, M±SE). The mice were under normal diets.
as §1, with “STZ-Control=oval; Hummulin R=rectangle; SPC-Insulin-P=upward pointing triangle; SPC-Insulin-PP=downward pointing triangle.” left out

[2] = commercial insulins; cited from earlier work

Substance | duration of effect [1] | time to best therapeutic effect [1] | start of working after injection [1] | duration of blood glucose lowering effect (normal mice) | duration of action [2]
SPC-insulin-PP: single polypeptide chain human insulin, b-chain linked to a-chain by two proline residues | 24 to 48 h | around 4 hours | 1 to 1.5 h | – | –
Humulin R: commercial regular human insulin, two-chain, used as positive control | – | – | – | 4 to 8 h | –
insulin Glargine | – | – | – | – | 18 to 24 h
insulin Detemir | – | – | – | – | 18 to 24 h
SPC-insulin-P: single polypeptide chain human insulin, b-chain C-terminus linked to a-chain N-terminus by one proline residue | 24 to 48 h | around 4 hours | 1 to 1.5 h | – | –

Reference: US12077568B2 (University of Houston System, priority 2018, dated 2024)
